The values below come from ChEMBL document CHEMBL3217474, “The structure based design of dual HDAC/BET inhibitors as novel epigenetic probes” (Medchemcomm, 2014).

Converted amounts (≈) assume the structure as drawn. The source made the active and inactive calls. No cut-off for these calls is given here.

Targets include Histone deacetylase 9 (Homo sapiens, UniProt Q9UKV0); Histone deacetylase 2 (Homo sapiens, UniProt Q92769); Histone deacetylase 3 (Homo sapiens, UniProt O15379).
Data set [1] is described as follows: Solubility of the compound by chemiluminescent nitrogen detection method. Type of data set: physicochemical.
In data set [2] the target is T1, Bromodomain-containing protein 4 (Homo sapiens, UniProt O60885). The experiment in a line: Inhibition of recombinant BRD4 bromodomain 1 (unknown origin) using histone H4 peptide as substrate incubated for 1 hr under dark condition by HTRF assay.
Data set [3] is described as follows: Permeability of the compound in artificial membrane. As to conditions: PAMPA; read-out: permeability. Type of data set: physicochemical, cell membranes.
Data set [4] deals with T2, Protein deacetylase HDAC6 (Homo sapiens, UniProt Q9UBN7).
T2 sequence (Q9UBN7 whole entry): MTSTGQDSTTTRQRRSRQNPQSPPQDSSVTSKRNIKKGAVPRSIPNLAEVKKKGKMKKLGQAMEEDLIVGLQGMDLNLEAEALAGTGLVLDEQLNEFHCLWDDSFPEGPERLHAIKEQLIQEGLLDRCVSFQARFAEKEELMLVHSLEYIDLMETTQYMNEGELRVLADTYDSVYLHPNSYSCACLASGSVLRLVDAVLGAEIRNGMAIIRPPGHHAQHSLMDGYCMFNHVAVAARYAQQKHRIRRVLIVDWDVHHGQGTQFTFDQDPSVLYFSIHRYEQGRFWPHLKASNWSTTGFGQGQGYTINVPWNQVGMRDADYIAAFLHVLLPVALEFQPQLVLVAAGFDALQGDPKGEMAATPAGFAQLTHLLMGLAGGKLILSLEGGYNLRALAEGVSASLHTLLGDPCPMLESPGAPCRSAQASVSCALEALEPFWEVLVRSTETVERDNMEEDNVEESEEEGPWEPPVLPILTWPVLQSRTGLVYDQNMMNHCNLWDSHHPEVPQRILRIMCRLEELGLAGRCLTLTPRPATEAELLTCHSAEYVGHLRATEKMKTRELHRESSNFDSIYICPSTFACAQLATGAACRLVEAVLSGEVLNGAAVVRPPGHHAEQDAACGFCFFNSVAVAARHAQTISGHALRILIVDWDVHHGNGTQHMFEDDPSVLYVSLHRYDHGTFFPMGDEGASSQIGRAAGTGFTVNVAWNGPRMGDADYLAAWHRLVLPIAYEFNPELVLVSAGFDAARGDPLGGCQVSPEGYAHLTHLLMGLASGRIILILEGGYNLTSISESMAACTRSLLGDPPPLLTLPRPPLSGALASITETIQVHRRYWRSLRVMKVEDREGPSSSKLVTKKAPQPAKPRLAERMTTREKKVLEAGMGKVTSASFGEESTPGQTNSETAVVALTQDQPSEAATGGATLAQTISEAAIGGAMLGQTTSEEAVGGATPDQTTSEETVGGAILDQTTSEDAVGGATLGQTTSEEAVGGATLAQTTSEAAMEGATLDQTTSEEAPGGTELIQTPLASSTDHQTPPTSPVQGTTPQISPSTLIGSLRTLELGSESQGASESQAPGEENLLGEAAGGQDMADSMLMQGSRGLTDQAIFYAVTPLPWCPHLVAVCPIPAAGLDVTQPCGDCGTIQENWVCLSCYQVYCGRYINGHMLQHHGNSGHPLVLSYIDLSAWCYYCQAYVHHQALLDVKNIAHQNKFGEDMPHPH
Description: Inhibition of HDAC6 (unknown origin)

For data set [5], the target named is T3, Histone deacetylase 1 (Homo sapiens, UniProt Q13547).
Description: Inhibition of HDAC1 (unknown origin)
The target of data set [6] is T4, Bromodomain-containing protein 2 (Homo sapiens, UniProt P25440). The experiment in a line: Binding affinity to BRD2 in human HL60 cell nuclear extracts assessed as inhibition of protein binding to N-I-BET functionalised sepharose beads at 10 uM after 1 hr by coomassie staining-based chemoproteomic profiling. The following applies: HL-60.
Target sequence in this assay (P25440 whole entry, looked up): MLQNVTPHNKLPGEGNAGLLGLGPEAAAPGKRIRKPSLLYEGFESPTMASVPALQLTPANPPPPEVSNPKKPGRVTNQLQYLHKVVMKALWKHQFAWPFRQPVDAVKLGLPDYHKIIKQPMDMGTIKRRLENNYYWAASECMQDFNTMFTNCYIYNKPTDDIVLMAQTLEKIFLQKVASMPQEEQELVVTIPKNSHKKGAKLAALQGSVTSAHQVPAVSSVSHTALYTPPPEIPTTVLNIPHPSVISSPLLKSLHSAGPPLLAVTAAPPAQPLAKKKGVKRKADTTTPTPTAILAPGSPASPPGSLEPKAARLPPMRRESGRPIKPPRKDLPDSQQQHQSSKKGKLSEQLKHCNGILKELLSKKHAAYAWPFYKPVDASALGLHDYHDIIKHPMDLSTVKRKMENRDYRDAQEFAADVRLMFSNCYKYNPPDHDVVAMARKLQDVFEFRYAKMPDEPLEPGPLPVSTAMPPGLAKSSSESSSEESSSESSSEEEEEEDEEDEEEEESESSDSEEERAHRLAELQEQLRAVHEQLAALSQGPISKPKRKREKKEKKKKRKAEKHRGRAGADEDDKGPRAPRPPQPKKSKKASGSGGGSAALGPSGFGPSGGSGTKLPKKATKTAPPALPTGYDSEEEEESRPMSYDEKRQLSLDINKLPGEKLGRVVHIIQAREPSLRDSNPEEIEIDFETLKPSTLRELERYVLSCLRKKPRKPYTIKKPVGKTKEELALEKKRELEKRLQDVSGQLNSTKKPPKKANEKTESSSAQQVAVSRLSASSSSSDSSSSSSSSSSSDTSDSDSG
The target of data set [7] is T5, Bromodomain-containing protein 3 (Homo sapiens, UniProt Q15059). The experiment in a line: Binding affinity to BRD3 in human HL60 cell nuclear extracts assessed as inhibition of protein binding to N-I-BET functionalised sepharose beads at 10 uM after 1 hr by coomassie staining-based staining-based chemoproteomic profiling. As to conditions: HL-60.
Target sequence in this assay (Q15059 2-726 limits assumed): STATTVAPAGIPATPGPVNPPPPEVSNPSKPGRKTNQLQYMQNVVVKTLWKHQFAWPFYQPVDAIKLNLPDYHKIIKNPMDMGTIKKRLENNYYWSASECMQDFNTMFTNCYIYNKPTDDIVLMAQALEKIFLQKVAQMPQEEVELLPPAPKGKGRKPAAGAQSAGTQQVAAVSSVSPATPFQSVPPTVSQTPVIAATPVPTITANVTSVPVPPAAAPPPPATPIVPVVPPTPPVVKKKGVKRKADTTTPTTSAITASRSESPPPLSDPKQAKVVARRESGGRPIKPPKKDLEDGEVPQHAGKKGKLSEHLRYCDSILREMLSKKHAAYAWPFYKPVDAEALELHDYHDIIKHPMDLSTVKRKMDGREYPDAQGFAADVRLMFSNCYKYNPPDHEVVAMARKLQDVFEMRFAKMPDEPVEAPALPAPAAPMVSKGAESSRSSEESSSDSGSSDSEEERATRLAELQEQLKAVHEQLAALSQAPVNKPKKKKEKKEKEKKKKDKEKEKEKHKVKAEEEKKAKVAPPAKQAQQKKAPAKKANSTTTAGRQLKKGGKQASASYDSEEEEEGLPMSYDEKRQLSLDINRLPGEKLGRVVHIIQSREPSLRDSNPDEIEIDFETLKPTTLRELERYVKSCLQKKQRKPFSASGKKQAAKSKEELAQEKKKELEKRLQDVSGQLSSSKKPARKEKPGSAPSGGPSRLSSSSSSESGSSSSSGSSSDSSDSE
For data set [8], the system named is PBMC. In words: Antiinflammatory activity in human PBMC assessed as inhibition of LPS-stimulated IL-6 production incubated for 30 mins prior to LPS-challenge measured after overnight incubation. Type of data set: functional, cell-based.
For another data set, the system named is MV4-11. In words: cells. Type of data set: functional, cell-based. As to conditions: Homo sapiens, MV4-11, 72 h.
Data set [9] addresses T1, Bromodomain-containing protein 4. In words: Binding affinity to BRD4 in human HL60 cell nuclear extracts assessed as inhibition of protein binding to N-I-BET functionalised sepharose beads at 10 uM after 1 hr by coomassie staining-based staining-based chemoproteomic profiling. The following applies: HL-60.
In a further data set the test system is HL-60. The experiment in a line: cells. The data set is classed as functional, cell-based. The following applies: Homo sapiens, HL-60, 72 h.
The nature of the next data set: cells. The data set is classed as functional. As to conditions: Homo sapiens, 72 h.
Data set [10] deals with PBMC. In words: Antiinflammatory activity in human PBMC assessed as inhibition of LPS-stimulated TNF-alpha production incubated for 30 mins prior to LPS-challenge measured after overnight incubation. Type of data set: functional, cell-based.
The next data set addresses T6, Histone deacetylase 8 (Homo sapiens, UniProt Q9BY41).
T6 sequence (Q9BY41 whole entry): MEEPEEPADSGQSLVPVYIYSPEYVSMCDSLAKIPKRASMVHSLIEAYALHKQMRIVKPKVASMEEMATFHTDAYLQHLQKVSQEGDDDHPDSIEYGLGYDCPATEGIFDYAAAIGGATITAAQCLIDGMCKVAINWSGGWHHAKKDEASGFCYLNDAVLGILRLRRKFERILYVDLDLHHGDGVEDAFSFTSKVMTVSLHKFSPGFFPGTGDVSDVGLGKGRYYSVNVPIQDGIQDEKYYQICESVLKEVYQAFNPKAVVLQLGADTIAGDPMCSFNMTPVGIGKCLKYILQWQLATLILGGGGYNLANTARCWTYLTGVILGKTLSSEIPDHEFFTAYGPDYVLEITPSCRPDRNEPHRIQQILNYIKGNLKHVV

Data set [11] addresses T3, Histone deacetylase 1. The source holds these as a separate data set.
Description: Binding affinity to HDAC1 in human HL60 cell nuclear extracts assessed as inhibition of enzyme binding to N-SAHA functionalised sepharose beads after 1 hr by coomassie staining-based chemoproteomic competition binding assay
The target of data set [12] is T1, Bromodomain-containing protein 4. In words: Inhibition of His6-tagged BRD4 (1 to 477) (unknown origin) by surface plasmon resonance analysis.
For data set [13] the target is unchanged. In words: Inhibition of BRD4 bromodomain 2 (338 to 437) (unknown origin) by surface plasmon resonance analysis.
The target in data set [14] is T4, Bromodomain-containing protein 2. In words: Binding affinity to BRD2 in human HL60 cell nuclear extracts assessed as inhibition of protein binding to N-I-BET functionalised sepharose beads after 1 hr by coomassie staining-based chemoproteomic competition binding assay. Further details: species or system HL-60. The following applies: read-out: Kd(app).
Target sequence in this assay (P25440 whole entry): as the sequence (P25440 whole entry, looked up) above
Data set [15] addresses T7, Polyamine deacetylase HDAC10 (Homo sapiens, UniProt Q969S8).
T7 sequence (Q969S8 whole entry): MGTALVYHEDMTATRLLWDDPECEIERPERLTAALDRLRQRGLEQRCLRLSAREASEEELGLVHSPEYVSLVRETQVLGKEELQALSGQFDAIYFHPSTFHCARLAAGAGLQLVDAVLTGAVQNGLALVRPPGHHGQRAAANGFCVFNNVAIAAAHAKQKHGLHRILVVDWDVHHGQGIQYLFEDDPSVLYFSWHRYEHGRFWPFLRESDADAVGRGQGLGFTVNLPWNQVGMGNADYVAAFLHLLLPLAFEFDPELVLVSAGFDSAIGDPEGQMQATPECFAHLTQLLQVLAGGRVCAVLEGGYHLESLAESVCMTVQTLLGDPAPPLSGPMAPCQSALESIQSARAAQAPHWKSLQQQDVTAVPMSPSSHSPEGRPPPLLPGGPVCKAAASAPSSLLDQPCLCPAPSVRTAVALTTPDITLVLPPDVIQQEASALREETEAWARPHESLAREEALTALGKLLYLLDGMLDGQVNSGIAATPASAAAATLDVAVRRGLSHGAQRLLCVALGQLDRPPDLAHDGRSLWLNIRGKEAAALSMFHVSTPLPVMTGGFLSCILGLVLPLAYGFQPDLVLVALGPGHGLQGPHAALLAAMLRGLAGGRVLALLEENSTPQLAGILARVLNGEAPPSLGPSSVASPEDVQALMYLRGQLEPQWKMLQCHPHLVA
Description: Binding affinity to HDAC10 in human HL60 cell nuclear extracts assessed as inhibition of enzyme binding to N-SAHA functionalised sepharose beads after 1 hr by coomassie staining-based chemoproteomic competition binding assay

Data set [16] deals with T1, Bromodomain-containing protein 4. In words: Binding affinity to BRD4 in human HL60 cell nuclear extracts assessed as inhibition of protein binding to N-I-BET functionalised sepharose beads after 1 hr by coomassie staining-based staining-based chemoproteomic competition assay. Further details: species or system HL-60. As to conditions: read-out: Kd(app).
In data set [17] the target is T2, Protein deacetylase HDAC6. The source holds these as a separate data set.
Description: Binding affinity to HDAC6 in human HL60 cell nuclear extracts assessed as inhibition of enzyme binding to N-SAHA functionalised sepharose beads after 1 hr by coomassie staining-based chemoproteomic competition binding assay
In data set [18] the target is T5, Bromodomain-containing protein 3. In words: Binding affinity to BRD3 in human HL60 cell nuclear extracts assessed as inhibition of protein binding to N-I-BET functionalised sepharose beads after 1 hr by coomassie staining-based chemoproteomic competition binding assay. The following applies: read-out: Kd(app). Further details: species or system HL-60.
Target sequence in this assay (Q15059 whole entry): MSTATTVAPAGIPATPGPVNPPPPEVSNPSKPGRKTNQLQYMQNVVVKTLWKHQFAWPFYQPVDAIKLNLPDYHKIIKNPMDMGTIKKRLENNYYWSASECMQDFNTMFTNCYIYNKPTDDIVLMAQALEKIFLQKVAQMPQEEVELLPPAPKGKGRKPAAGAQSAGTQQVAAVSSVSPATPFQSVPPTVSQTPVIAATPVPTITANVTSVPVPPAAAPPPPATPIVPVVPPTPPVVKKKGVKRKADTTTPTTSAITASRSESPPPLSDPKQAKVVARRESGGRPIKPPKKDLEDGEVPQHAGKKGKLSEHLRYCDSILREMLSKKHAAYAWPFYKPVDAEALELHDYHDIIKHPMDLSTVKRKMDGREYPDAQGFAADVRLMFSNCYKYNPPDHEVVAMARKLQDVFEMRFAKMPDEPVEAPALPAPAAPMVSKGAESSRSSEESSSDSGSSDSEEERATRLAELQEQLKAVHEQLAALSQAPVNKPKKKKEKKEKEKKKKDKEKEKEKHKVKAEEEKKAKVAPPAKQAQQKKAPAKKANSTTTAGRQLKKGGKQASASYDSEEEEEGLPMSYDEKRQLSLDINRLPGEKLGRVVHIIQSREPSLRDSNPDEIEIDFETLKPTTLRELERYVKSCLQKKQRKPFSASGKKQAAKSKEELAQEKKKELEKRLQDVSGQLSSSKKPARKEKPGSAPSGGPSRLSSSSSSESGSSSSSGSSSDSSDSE
The next data set is filed under the species Homo sapiens. In words: Inhibition of BET in human 11060 cells assessed as downregulation of c-Myc expression level at IC90 after 6 to 24 hrs by Western blotting analysis. Type of data set: cell-based.

Chain of Histone deacetylase 9 (Q9UKV0 whole entry): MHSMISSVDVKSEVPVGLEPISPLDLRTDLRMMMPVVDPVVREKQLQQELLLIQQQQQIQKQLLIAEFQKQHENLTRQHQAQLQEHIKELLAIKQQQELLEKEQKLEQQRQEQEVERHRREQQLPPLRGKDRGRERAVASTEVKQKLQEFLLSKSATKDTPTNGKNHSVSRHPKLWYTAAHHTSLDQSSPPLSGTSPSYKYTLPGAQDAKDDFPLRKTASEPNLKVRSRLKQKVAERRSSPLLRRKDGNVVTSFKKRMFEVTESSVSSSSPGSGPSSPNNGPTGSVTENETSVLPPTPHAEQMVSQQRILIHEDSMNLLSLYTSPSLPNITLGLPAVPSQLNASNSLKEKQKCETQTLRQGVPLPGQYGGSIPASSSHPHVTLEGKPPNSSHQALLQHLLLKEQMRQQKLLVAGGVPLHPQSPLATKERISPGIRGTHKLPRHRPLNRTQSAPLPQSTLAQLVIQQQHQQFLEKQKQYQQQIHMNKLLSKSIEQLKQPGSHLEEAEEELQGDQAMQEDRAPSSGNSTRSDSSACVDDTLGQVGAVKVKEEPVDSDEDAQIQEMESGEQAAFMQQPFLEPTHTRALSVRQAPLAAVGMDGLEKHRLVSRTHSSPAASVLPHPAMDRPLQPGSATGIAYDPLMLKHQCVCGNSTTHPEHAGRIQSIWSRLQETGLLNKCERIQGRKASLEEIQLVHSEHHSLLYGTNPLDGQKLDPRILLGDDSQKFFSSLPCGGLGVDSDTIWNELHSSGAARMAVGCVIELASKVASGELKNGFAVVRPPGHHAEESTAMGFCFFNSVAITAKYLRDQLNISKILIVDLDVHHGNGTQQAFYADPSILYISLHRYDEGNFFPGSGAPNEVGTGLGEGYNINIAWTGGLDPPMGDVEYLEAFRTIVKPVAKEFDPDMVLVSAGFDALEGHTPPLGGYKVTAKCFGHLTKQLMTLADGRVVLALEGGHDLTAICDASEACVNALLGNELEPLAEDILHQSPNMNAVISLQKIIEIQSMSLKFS
T3 sequence (Q13547 whole entry): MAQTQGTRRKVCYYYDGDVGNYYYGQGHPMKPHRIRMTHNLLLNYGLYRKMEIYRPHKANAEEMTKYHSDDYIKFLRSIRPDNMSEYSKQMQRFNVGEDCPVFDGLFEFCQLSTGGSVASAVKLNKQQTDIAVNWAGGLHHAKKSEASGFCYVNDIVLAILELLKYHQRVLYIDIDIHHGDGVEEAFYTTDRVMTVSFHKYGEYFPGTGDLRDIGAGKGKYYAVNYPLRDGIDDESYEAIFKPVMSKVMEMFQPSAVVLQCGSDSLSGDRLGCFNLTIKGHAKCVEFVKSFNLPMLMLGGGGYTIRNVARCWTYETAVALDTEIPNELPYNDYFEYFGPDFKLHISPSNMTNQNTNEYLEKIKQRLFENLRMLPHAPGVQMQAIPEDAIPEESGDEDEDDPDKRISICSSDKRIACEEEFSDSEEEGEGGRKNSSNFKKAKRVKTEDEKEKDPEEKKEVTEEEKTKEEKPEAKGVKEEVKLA
Chain of Histone deacetylase 2 (Q92769 whole entry): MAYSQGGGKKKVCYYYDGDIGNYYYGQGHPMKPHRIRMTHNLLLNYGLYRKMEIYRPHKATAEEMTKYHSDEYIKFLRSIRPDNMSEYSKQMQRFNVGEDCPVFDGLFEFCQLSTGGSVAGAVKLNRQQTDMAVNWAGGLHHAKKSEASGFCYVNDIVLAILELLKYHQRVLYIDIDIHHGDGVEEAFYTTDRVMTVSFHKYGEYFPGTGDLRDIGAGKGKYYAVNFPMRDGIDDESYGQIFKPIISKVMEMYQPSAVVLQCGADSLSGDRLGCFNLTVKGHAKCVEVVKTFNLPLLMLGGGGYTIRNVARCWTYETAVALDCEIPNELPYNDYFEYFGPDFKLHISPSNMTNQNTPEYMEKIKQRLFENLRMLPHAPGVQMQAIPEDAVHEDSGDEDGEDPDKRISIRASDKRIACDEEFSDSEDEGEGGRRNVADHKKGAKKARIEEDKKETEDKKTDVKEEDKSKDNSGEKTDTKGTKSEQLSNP
Description for HL-60: Growth inhibition of human HL60 cells assessed as ATP level after 72 hrs by CellTiterGlo assay
Description for Histone deacetylase 2: Binding affinity to HDAC2 in human HL60 cell nuclear extracts assessed as inhibition of enzyme binding to N-SAHA functionalised sepharose beads after 1 hr by coomassie staining-based chemoproteomic competition binding assay
Description for Histone deacetylase 3: Binding affinity to HDAC3 in human HL60 cell nuclear extracts assessed as inhibition of enzyme binding to N-SAHA functionalised sepharose beads after 1 hr by coomassie staining-based chemoproteomic competition binding assay
Description for Histone deacetylase 8: Binding affinity to HDAC8 in human HL60 cell nuclear extracts assessed as inhibition of enzyme binding to N-SAHA functionalised sepharose beads after 1 hr by coomassie staining-based chemoproteomic competition binding assay
Description for Histone deacetylase 9: Inhibition of HDAC9 (unknown origin)
Description for MV4-11: Growth inhibition of human MV4-11 cells assessed as ATP level after 72 hrs by CellTiterGlo assay

As for `CC(=O)N1c2ccc(NC(=O)CCCCCCC(=O)NO)cc2[C@H](Nc2ccccc2)C[C@@H]1C`, the IC50 is 37700 nM against Histone deacetylase 9, 100 nM in data set [2], 980 nM in [4] and 900 nM against Histone deacetylase 1 [5]. For the same compound, the solubility in [1] (read-out: solubility) was found to be 31 µM (≈ 14.5 µg/mL). In addition, the Papp in data set [3] is 3.1 ×10⁻⁶ cm/s.

`CNCc1ccc(-c2ccc3c(c2)[C@H](NC(=O)OC(C)C)C[C@H](C)N3C(C)=O)cc1`: the inhibition entry in [6], in [7] and in data set [9] was “Active” throughout. Moreover, the IC50 on Histone deacetylase 9 is over 100000 nM; in the data set on PBMC [8], 5 nM; with MV4-11, 191 nM; in data set [2], 280 nM; in the data set on HL-60, 381 nM; in “cells”, 306 nM. Moreover, the IC50 is 1 nM with PBMC [10] and over 100000 nM against Histone deacetylase 1 [5]. Besides, the solubility in data set [1] (read-out: solubility) was 357 µM (≈ 146 µg/mL). Besides, the Papp in data set [3] is 17.4 ×10⁻⁶ cm/s.

On to `O=C(CCCCCCC(=O)Nc1ccccc1)NO` [VORINOSTAT], for which the solubility in data set [1] amounted to 307 µM (≈ 81.1 µg/mL). In data set [2], the IC50 was over 50000 nM. Also, the Papp in data set [3] amounted to 1.5 ×10⁻⁶ cm/s.

Consider `CC(=O)N1c2ccc(NC(=O)CCCCCCC(=O)O)cc2[C@H](NC(=O)OC(C)C)C[C@@H]1C`, for which the inhibition result in data set [6], in data set [7] and in data set [9] was “Active” each time.

On to `CC(=O)N1c2ccc(NC(=O)CCCCCCC(=O)NO)cc2[C@H](NC(=O)OC(C)C)C[C@@H]1C`, for which the IC50 was 61700 nM on Histone deacetylase 9, 290 nM in [2], 1740 nM in data set [4] and 250 nM on Histone deacetylase 1 [5]. Further, in [1] (read-out: solubility), the solubility is over 182 µM. Besides, the Papp in data set [3] is under 0.3 ×10⁻⁶ cm/s.

As for `CC(=O)N1c2ccc(-c3ccccc3)cc2[C@H](NC(=O)CCCCCCC(=O)NO)C[C@@H]1C`, the inhibition result in [6], in data set [7] and in data set [9] was “Active” throughout. Moreover, the IC50 was determined as 930 nM against Histone deacetylase 9, 360 nM in [2], 1290 nM in data set [4] and 50 nM on Histone deacetylase 1 [5]. The solubility in data set [1] (read-out: solubility) is over 442 µM. Also, the Papp in data set [3] amounted to 0.8 ×10⁻⁶ cm/s.

With `CC(=O)N1c2ccc(-c3ccc(NC(=O)CCCCCCC(=O)NO)cc3)cc2[C@H](NC(=O)OC(C)C)C[C@@H]1C`, the inhibition entry (in data set [6]; in [7]; in data set [9]; in the data set filed under Homo sapiens) was “Active” throughout. In addition, the IC50 came out at 34900 nM at Histone deacetylase 9; 219 nM in the data set with PBMC [8]; 334 nM in the data set with MV4-11; 50 nM in data set [2]; 764 nM in the data set on HL-60; 420 nM in data set [4]. For the same compound, the values for the IC50 in the data set “cells”, in the data set with PBMC [10] and on Histone deacetylase 1 [5] were 832 nM, 50 nM and 250 nM, respectively. In addition, in data set [1] (read-out: solubility), the solubility was found to be 154 µM (≈ 85.1 µg/mL). The Kd on Histone deacetylase 8 came to 328 nM; at Histone deacetylase 1 [11], 331 nM; in [12], 57 nM; in data set [13] it was 53 nM; in [14], 32 nM; in data set [15], 207 nM. The Kd at Histone deacetylase 2 was found to be 955 nM; in [16], 112 nM; in data set [17], 236 nM; in [18] it was 70 nM; at Histone deacetylase 3, 424 nM. Moreover, in data set [3], the Papp was under 0.3 ×10⁻⁶ cm/s.
